From article PMC10952689 (Angewandte Chemie (International Ed. in English), 2023) come the findings set out here.

In the test the target is T1, human TRPV1 (Homo sapiens, UniProt Q8NER1).
T1 construct: expressed in transfected cells
The class given is cell-based.

Molecules are shown by their SMILES.

T1 sequence (Q8NER1 whole entry): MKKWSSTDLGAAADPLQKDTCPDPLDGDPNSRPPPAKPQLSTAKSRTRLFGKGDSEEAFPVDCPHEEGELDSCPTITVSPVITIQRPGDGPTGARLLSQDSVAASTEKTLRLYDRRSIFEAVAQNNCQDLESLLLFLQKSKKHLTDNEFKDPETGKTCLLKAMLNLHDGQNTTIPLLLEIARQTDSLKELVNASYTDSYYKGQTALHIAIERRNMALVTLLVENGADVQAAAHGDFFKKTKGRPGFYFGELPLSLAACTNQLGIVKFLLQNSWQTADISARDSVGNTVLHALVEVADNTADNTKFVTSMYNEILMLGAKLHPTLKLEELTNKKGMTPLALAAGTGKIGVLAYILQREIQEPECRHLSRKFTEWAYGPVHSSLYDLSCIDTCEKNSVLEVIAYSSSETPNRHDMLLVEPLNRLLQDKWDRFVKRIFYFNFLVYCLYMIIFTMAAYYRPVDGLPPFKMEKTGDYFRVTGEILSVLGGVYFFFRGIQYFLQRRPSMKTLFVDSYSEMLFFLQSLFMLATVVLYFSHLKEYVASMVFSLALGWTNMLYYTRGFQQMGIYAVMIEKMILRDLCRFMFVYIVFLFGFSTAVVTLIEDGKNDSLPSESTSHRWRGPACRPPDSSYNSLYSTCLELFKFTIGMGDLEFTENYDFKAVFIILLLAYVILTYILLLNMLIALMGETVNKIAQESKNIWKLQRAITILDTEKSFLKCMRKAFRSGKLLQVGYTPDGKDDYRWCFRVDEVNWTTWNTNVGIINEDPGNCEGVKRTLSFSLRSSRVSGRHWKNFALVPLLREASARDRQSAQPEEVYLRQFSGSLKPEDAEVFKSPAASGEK
Description: Oocytes were held at −60 mV and data normalised to currents elicited by 10 μM capsaicin. (D) Reversibility of DkTx and Y35G evoked rat TRPV1 response at the indicated peptide concentrations using TEVC oocytes. Data points represent the fraction of currents remaining during the washout as a ratio to the maximal current evoked by each sample. (E) Washout shown as fractional current determined by whole‐cell patch clamp recordings from HEK293 cells expressing TRPV1 (voltage‐clamped at −80 mV). […] The time constant for decay was not fitted and calculated in panels D and E, as it could not be accurately determined for data sets with minimal washout over the experimental time course. All data are mean ± standard error of the mean (n=5–7).

As to `COc1cc(CNC(=O)CCCC/C=C/C(C)C)ccc1O` [capsaicin], the “reversibility of TRPV1 current upon washing” value is recorded as “rapidly reversible upon washing”.
On to `N.N.N.N.N.N.N.N.N.N.N.N.N.N.[Cl-].[Cl-].[Cl-].[Cl-].[Cl-].[Cl-].[O-2].[O-2].[Ru+3].[Ru+3].[Ru+4]` [ruthenium red], for which the “inhibition of iDkTx-evoked currents” value (10 μM ruthenium red against 2 μM iDkTx, +80 mV, HEK293, Figure 1E–F) is listed as “fully inhibited”.
